# Measurements from ChEMBL document CHEMBL1201862, “PubChem BioAssay data set” (2004).
#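 Exposure lasted 48 hours, with cells grown in 96-well plates and compounds tested at five concentrations. Abbreviation: GI50, concentration required for 50% inhibition of growth.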 The source made the active and inactive calls. No stated cut-off is given here; in the data, active = GI50 up to about 1.1 µM and inactive = higher.
# Experiments:
# Test in all cases: inhibition of tumour cell growth, NCI panel, 48 h
# NCI-H23 = test system: NCI-H23
# A498 = test system: A498
# RPMI-8226 = test system: RPMI-8226
# IGROV-1 = test system: IGROV-1
# NCI-H226 = test system: NCI-H226
# A549 = test system: A549
# SNB-75 = test system: SNB-75
# SNB-19 = test system: SNB-19
# EKVX = test system: EKVX
# SK-MEL-2 = test system: SK-MEL-2
# SK-MEL-5 = test system: SK-MEL-5
# HCT-15 = test system: HCT-15
# NCI-H522 = test system: NCI-H522
# UO-31 = test system: UO-31
# HOP-62 = test system: HOP-62
# CAKI-1 = test system: CAKI-1
# Malme-3M = test system: Malme-3M
# OVCAR-3 = test system: OVCAR-3
# 786-0 = test system: 786-0
SMILES,GI50 (NCI-H23),GI50 (A498),GI50 (RPMI-8226),GI50 (IGROV-1),GI50 (NCI-H226),GI50 (A549),GI50 (SNB-75),GI50 (SNB-19),GI50 (EKVX),GI50 (SK-MEL-2),GI50 (SK-MEL-5),GI50 (HCT-15) [µM],GI50 (NCI-H522),GI50 (UO-31),GI50 (HOP-62),GI50 (CAKI-1),GI50 (Malme-3M),GI50 (OVCAR-3),GI50 (786-0)
c1csc(C(NC2=NCCO2)C2CC2)c1 (configuration not stated),> 100 µM (inactive),> 100 µM (inactive),> 100 µM (inactive),> 100 µM (inactive),> 100 µM (inactive),> 100 µM (inactive),> 100 µM (inactive),> 100 µM (inactive),> 100 µM (inactive),> 100 µM (inactive),> 100 µM (inactive),> 100,> 100 µM (inactive),> 100 µM (inactive),> 100 µM (inactive),> 100 µM (inactive),,,
COc1ccc(N2C(=O)/C(=C\c3ccccc3)SC2c2cc(OC)c(OC)c(OC)c2)cc1 (configuration not stated),92.7 µM (inactive),73.8 µM (inactive),,,> 100 µM (inactive),> 100 µM (inactive),8.05 µM (inactive),> 100 µM (inactive),15 µM (inactive),30.4 µM (inactive),48.4 µM (inactive),> 100,14.2 µM (inactive),50.4 µM (inactive),65.8 µM (inactive),46.8 µM (inactive),> 100 µM (inactive),,
CCC1C(=O)OCc2c1cc1n(c2=O)C(CC)c2c-1nc1ccccc1c2Cl (configuration not stated),25.6 µM (inactive),21.9 µM (inactive),13.2 µM (inactive),19.9 µM (inactive),29.1 µM (inactive),26.7 µM (inactive),,29.6 µM (inactive),25.2 µM (inactive),21 µM (inactive),16.7 µM (inactive),36.6,15 µM (inactive),23.9 µM (inactive),20.7 µM (inactive),23 µM (inactive),38.8 µM (inactive),20.3 µM (inactive),15.7 µM (inactive)
C[N+](C)(C)C.FC(F)(F)C1(C(F)(F)F)O[SiH-]2(OC(C(F)(F)F)(C(F)(F)F)c3ccccc32)c2ccccc21,11 µM (inactive),,16.4 µM (inactive),,4.86 µM (inactive),10 µM (inactive),,7.18 µM (inactive),14.2 µM (inactive),17.7 µM (inactive),,10.4,22.1 µM (inactive),14.6 µM (inactive),,26.4 µM (inactive),19.5 µM (inactive),18.9 µM (inactive),16.7 µM (inactive)
CCOc1cc(NC(C)=O)ccc1C(=O)NN1C(=O)/C(=C/c2cc(OC)c(OC)c(OC)c2)N=C1c1ccccc1,> 100 µM (inactive),> 100 µM (inactive),,> 100 µM (inactive),> 100 µM (inactive),> 100 µM (inactive),,> 100 µM (inactive),> 100 µM (inactive),,65.8 µM (inactive),> 100,28.3 µM (inactive),> 100 µM (inactive),,> 100 µM (inactive),53.5 µM (inactive),> 100 µM (inactive),> 100 µM (inactive)
COC(=O)c1nc(N)nc(C(=O)OC)c1C(=O)c1ccccc1,> 100 µM (inactive),> 100 µM (inactive),> 100 µM (inactive),> 100 µM (inactive),,> 100 µM (inactive),54.1 µM (inactive),> 100 µM (inactive),> 100 µM (inactive),> 100 µM (inactive),> 100 µM (inactive),> 100,> 100 µM (inactive),> 100 µM (inactive),,,> 100 µM (inactive),> 100 µM (inactive),> 100 µM (inactive)
CC1=CC(C)(C)N=C2SC(c3ccc(N)cc3)=NN12,> 81.1 µM (inactive),63.4 µM (inactive),21.1 µM (inactive),> 100 µM (inactive),> 94.6 µM (inactive),51.9 µM (inactive),> 52.5 µM (inactive),> 87.3 µM (inactive),24.9 µM (inactive),,70.3 µM (inactive),31.6,58.6 µM (inactive),28 µM (inactive),> 100 µM (inactive),61.8 µM (inactive),> 100 µM (inactive),58.2 µM (inactive),57.1 µM (inactive)
CC1=C2O[B-](c3ccccc3)(c3ccccc3)[O+]=C2C=CN1,36.6 µM (inactive),,28.3 µM (inactive),61.7 µM (inactive),,58.3 µM (inactive),22.8 µM (inactive),37.3 µM (inactive),28.8 µM (inactive),,21.5 µM (inactive),32.3,,4.46 µM (inactive),25.9 µM (inactive),21.8 µM (inactive),34.6 µM (inactive),2 µM (inactive),46.2 µM (inactive)
CN(Cc1ccccc1)C(=NC#N)N(C)Cc1ccccc1,> 100 µM (inactive),,,> 100 µM (inactive),,> 100 µM (inactive),,> 100 µM (inactive),> 100 µM (inactive),> 100 µM (inactive),> 100 µM (inactive),> 100,> 100 µM (inactive),> 100 µM (inactive),> 100 µM (inactive),> 100 µM (inactive),,> 100 µM (inactive),> 100 µM (inactive)
CN(C)c1nc(N(C)C)nc(N(C)CN(C)c2ccc(Cl)cc2)n1,> 100 µM (inactive),,,> 100 µM (inactive),> 100 µM (inactive),> 100 µM (inactive),> 100 µM (inactive),> 100 µM (inactive),,> 100 µM (inactive),> 100 µM (inactive),> 100,> 100 µM (inactive),> 100 µM (inactive),,,> 100 µM (inactive),39 µM (inactive),
O=C(Nc1c(Cl)cc([N+](=O)[O-])cc1Cl)C(=O)C(C1OC(=O)c2ccccc21)[N+](=O)[O-] (configuration not stated),> 100 µM (inactive),31.6 µM (inactive),89.9 µM (inactive),> 100 µM (inactive),> 100 µM (inactive),> 100 µM (inactive),> 100 µM (inactive),> 100 µM (inactive),75.9 µM (inactive),> 100 µM (inactive),> 100 µM (inactive),> 100,,23.5 µM (inactive),81.8 µM (inactive),> 100 µM (inactive),> 100 µM (inactive),> 100 µM (inactive),> 100 µM (inactive)
CC1=NOC(=O)C1/N=N/c1ccc(Br)c(C)c1 (configuration not stated),21.6 µM (inactive),21.4 µM (inactive),15.9 µM (inactive),19.2 µM (inactive),25.5 µM (inactive),20.3 µM (inactive),30.5 µM (inactive),31.2 µM (inactive),18 µM (inactive),16.3 µM (inactive),12.7 µM (inactive),19.3,,,22.3 µM (inactive),16.1 µM (inactive),18.7 µM (inactive),17.2 µM (inactive),20 µM (inactive)
COc1ccc(/C=N/n2cnc3c(c2=O)S/C(=C2/SC(=S)N(c4ccc(C)cc4)C2=O)N3c2ccccc2)cc1,,,40.8 µM (inactive),42.7 µM (inactive),> 100 µM (inactive),41.3 µM (inactive),> 100 µM (inactive),28.4 µM (inactive),> 100 µM (inactive),79.4 µM (inactive),,> 100,52.4 µM (inactive),> 100 µM (inactive),22.8 µM (inactive),> 10 µM (inactive),19.7 µM (inactive),29.9 µM (inactive),
NC12CC3CC(C1)CC(Cl)(C3)C2,> 100 µM (inactive),> 100 µM (inactive),> 100 µM (inactive),> 100 µM (inactive),,> 100 µM (inactive),> 100 µM (inactive),,> 100 µM (inactive),> 100 µM (inactive),,,> 100 µM (inactive),> 100 µM (inactive),> 100 µM (inactive),,> 100 µM (inactive),> 100 µM (inactive),> 100 µM (inactive)
Cc1noc(/N=C2\C=C(Nc3onc(C)c3C)C(=O)c3ccccc32)c1C,27.5 µM (inactive),> 100 µM (inactive),25.1 µM (inactive),> 100 µM (inactive),> 100 µM (inactive),87.1 µM (inactive),69.3 µM (inactive),> 100 µM (inactive),> 100 µM (inactive),48.1 µM (inactive),15.6 µM (inactive),> 100,,17.6 µM (inactive),> 100 µM (inactive),> 100 µM (inactive),> 100 µM (inactive),2.88 µM (inactive),> 100 µM (inactive)
CCOC(=O)C1=C(N)N(c2ccccc2)/C(=C(/C#N)c2nc3ccccc3[nH]2)S1,> 100 µM (inactive),> 100 µM (inactive),,> 100 µM (inactive),> 100 µM (inactive),> 100 µM (inactive),> 100 µM (inactive),> 100 µM (inactive),> 100 µM (inactive),> 100 µM (inactive),> 100 µM (inactive),> 100,> 100 µM (inactive),> 100 µM (inactive),> 100 µM (inactive),> 100 µM (inactive),> 100 µM (inactive),> 100 µM (inactive),> 100 µM (inactive)
C=C1C(=O)C23C(O)CC4C5(C)CCCC4(C(O)OC5)C2C(OC(C)=O)CC1C3O (configuration not stated),5.41 µM (inactive),,3.64 µM (inactive),19.4 µM (inactive),19.5 µM (inactive),20.8 µM (inactive),4.28 µM (inactive),14.7 µM (inactive),14.6 µM (inactive),13.8 µM (inactive),14.8 µM (inactive),11.7,1.58 µM (inactive),34.5 µM (inactive),17.5 µM (inactive),4.95 µM (inactive),14.3 µM (inactive),13.2 µM (inactive),6.31 µM (inactive)
